Legend:
[1] = Solubility of BMS-986165 crystalline free base as a function of pH; assay type: physicochemical; conditions: pHs>4
[2] = Chemical stability (related substances) of BMS-986165:HPMCAS-H SDDs on storage; assay type: physicochemical; conditions: API standard, no storage condition
Experimental: Lots of 25% w/w BMS-986165 SDD with HPMCAS-H were assessed for physical and chemical stability. […] Dissolution performance in the microcentrifuge test was unchanged.
There was no evidence of crystallization by PXRD in any SDD after storage for up to 6 months at 40° C./75% RH open (FIG. 1A and FIG. 1B). DSC data indicated slight changes similar to those observed in 25% w/w BMS-986165 SDD after exposure to 50° C./75% RH or 40° C./75% RH but there was no trend with API loading and the results were considered to reflect an “ageing” or “annealing” effect rather than crystal formation. Scanning electron microscopy (SEM) images confirmed the presence of a single phase homogenous dispersion (FIG. 2A-C, FIG. 3A-C, FIG. 4A-C).

Row | SMILES | solubility [1] | BMS-986165 (related substances, relative ret. time 1.00) [2] | Total impurities >LOQ [2] [%]
1 | [2H]C([2H])([2H])NC(=O)c1nnc(NC(=O)C2CC2)cc1Nc1cccc(-c2ncn(C)n2)c1OC [BMS-986165 crystalline free base, 6-(cyclopropaneamido)-4-((2-methoxy-3-(1-methyl-1H-1,2,4-triazol-3-yl)phenyl)amino)-N-(methyl-d3)pyridazine-3-carboxamide] | low | – | –
2 | [2H]C([2H])([2H])NC(=O)c1nnc(NC(=O)C2CC2)cc1Nc1cccc(-c2ncn(C)n2)c1OC [BMS-986165, 6-(cyclopropaneamido)-4-((2-methoxy-3-(1-methyl-1H-1,2,4-triazol-3-yl)phenyl)amino)-N-(methyl-d3)pyridazine-3-carboxamide] | – | 99.48 | 0.52
